According to patent US20240003908A1, “POLYOL BIOMARKERS FOR CONGENITAL DISORDERS OF GLYCOSYLATION” (Mayo Foundation for Medical Education and Research, priority 2020, published 2024):
Marks after values point to notes of the source that are not given here.

Legend:
[1] = tested on: child with PMM2-CDG; experiment: Single patient (P1) study: safety and tolerability of oral epalrestat; format: in vivo, human; settings: for liver elastography Interquartile Range to Median ratio: normal below 25%
Procedure: Study design: An open label, single patient (P1) compassionate use study was designed to assess the safety and tolerability of oral epalrestat therapy in a child with PMM2-CDG.
Patient assessment: Prior to the first dose of epalrestat and at 1, 2, 3, 6, 8, 9, 12 months during treatment, concomitant medications and vital signs were recorded and the patient was evaluated using the NPCRS. In addition, blood was drawn for serum chemistry, hematology, and plasma levels of epalrestat. Urine was collected for polyol measurement at baseline and twice over the course of 12 months of therapy.
Drug administration: Epalrestat was administered orally, 3 times per day (TID) before meals in a divided dose (0.8 mg/kg/day; 5 mg TID) of epalrestat (Ono Pharmaceuticals, Osaka, Japan) starting on Day 1 of the study.
Safety and efficacy: Safety measures included vital signs, change in CBC, liver function (INR, bilirubin, transaminases, and albumin) in blood, change in liver elastography, and following the pharmacokinetic profile of epalrestat. The efficacy of epalrestat was studied by clinical follow up (physical exam, NPCRS, ICARS), standard laboratory tests, and transferrin glycoform analysis by mass spectrometry.

[2] = tested on: PMM-deficient fibroblasts; experiment: Glycoproteomics of PMM-deficient fibroblasts treated with epalrestat or vehicle; format: cell-based, human
From the text: Proteomics and glycoproteomics: Cell were scraped in PBS, pH 7.4 and sonicated with a tip sonicator at 40% amplitude for 3 cycles of 10 seconds each. Equal amount of proteins were digested with trypsin as described elsewhere (Mun et al., Anal Chem 92:14466-14475, 2020). The digested peptides were labeled with tandem mass tag (TMT) reagents as per the manufacturer's instructions (ThermoFisher). Labelled samples were pooled, and either size-exclusion chromatography or basic pH reversed-phase fractionation was performed. An aliquot of dried peptides was resuspended in 100 μL of 0.1% formic acid and injected into Superdex peptide 10/300 column (GE Healthcare). Twenty-one (21) early fractions were collected starting at 10 minutes after injection (total run time of 130 minutes) and analyzed by LC-MS/MS as described elsewhere (Mun et al., supra). Another aliquot of total peptides was cleaned up by C18 TopTips (Glygen) and fractionated by bRPLC on a reversed phase C18 column (4.6×100 mm column). Twelve (12) fractions were dried and re-suspended in 0.1% formic acid for LC-MS/MS analysis.
A modification of the LC-MS/MS parameters described by Mun et al. (supra) were used. Specifically, 21 early fractions from SEC and 12 fractions of bRPLC were analyzed by Orbitrap Exploris480 mass spectrometer (Thermo Fisher Scientific) coupled to an EASY-Spray column (Thermo Fisher Scientific). Every run was 130 minutes with a flow rate of 300 nL/minute. The gradient used for separation was: equilibration at 3% solvent B from 0 to 4 minutes, 3% to 10% sol B from 4 to 10 minutes, 10% to 35% sol B from 10.1 to 125 minutes, and 35% to 80% sol B from […]. All experiments were done in DDA mode with the top 15 ions isolated at a window of 0.7 m/z and a default charge state of +2. Charge states ranging from +2 to +7 were considered for MS/MS events. Stepped collision energy was applied to precursors at normalized collision energies of 15, 25, and 40. The MS precursor mass range was set to 375 to 2000 m/z and 100 to 2000 for MS/MS. The automatic gain control for MS and MS/MS were 1×10^6 and 1×10^5 and the injection times to reach AGC were 50 ms and 250 ms, respectively. 60 second dynamic exclusion was applied. Data acquisition was performed with the option of Lock mass (441.1200025 m/z) for all data.
Database searching and analysis: The publicly available software pGlyco Version 2.2.0 was used (Zeng et al., Sci Rep 6:25102, 2016; and Liu et al., Nat Commun 8:438, 2017). A glycan database containing 8,092 entries and Uniprot Human Reviewed protein sequences (20,432 entries) were used as protein sequence fasta files. Cleavage specificity was set to fully tryptic with 2 missed cleavages, and precursor and fragment tolerance were set to 5 and 20 ppm. […] Reporter ion quantification was performed in Proteome Discoverer 2.5 using “reporter ion quantifier” node and Ids were matched with quantitation on a scan-to-scan basis (MS/MS). […]
To compare responders (patients who had more than a 20% increase in enzyme activity after epalrestat treatment) to non-responders (patients who had less than a 20% increase in enzyme activity after epalrestat treatment) and gauge the increase in glycosylation upon epalrestat treatment, linear fold changes (treated/untreated) were calculated for each of these 412 glycopeptides. The fold changes of non-responders were subtracted from the fold changes of the responders, and the fold change difference (delta fold change) was calculated. […]

[3] = tested on: urine sorbitol and mannitol; experiment: Urine polyols (GC/MS) in patients with other CDG, post-treatment with epalrestat; format: in vivo, human
Procedure: Urine specimens were collected from patients known to have a CDG. The samples were spiked with a mixture of labeled internal standards, allowed to equilibrate, and evaporated. The dry residue was derivatized to form trimethylsilyl esters then extracted with hexane. Specimens were analyzed by GC/MS, with selected ion monitoring using ammonia chemical ionization and a stable isotope dilution method (Jansen et al. Clin Chim Acta 1986, 157:277-294; and Kaur et al., Eur J Med Genet 2019, 62(8):103708). Sorbitol levels were considered elevated when they were above 10 mmol/mol creatinine, and mannitol levels were considered elevated when they were above 15 mmol/mol creatinine.

[4] = patient P1, throughout the study

Compound: CC(/C=C1\SC(=S)N(CC(=O)O)C1=O)=C\c1ccccc1 [epalrestat]
- liver elastography Interquartile Range to Median ratio ([1]; after 1 month of therapy, prior to therapy 14%): 12%
- liver elastography Interquartile Range to Median ratio ([1]; at 6 months): 20%
- liver elastography Interquartile Range to Median ratio ([1]; at 12 months): 8%
- liver elastography ([1]; patient P1): remained normal
- adverse events ([1]; patient P1, 0.27 mg/kg three times a day, 12 months): No adverse events
- CBC with differential, transaminases, bilirubin, and albumin [1, 4]: remained normal
- antithrombin III levels and International normalized ratio (INR) [1, 4]: remained at normal levels
- vital signs [1, 4]: remained normal
- share of reduced glycopeptides improved post-treatment ([2]; 665 of 1,448): 46%
- improved glycopeptides that had reduced glycosylation in PMM-deficient fibroblasts compared to controls ([2]; among the 412 improved): 97 glycopeptides
- number of glycopeptides improved post-treatment, becoming similar to controls ([2]; of 1,448 reduced in untreated PMM-deficient fibroblasts): 665 glycopeptides
- number of glycopeptides with differential (enhanced) abundance after epalrestat ([2]; paired epalrestat vs vehicle): 412 glycopeptides
- ICAM-1 Asn267 glycopeptide (Hex7HexNAc6NeuAc2Fuc5) increase in abundance ([2]; paired epalrestat vs. vehicle analysis): 10%
- Mannitol (urine) ([3]; MAN1B1-CDG patient, second sample, after off-label epalrestat, first sample 14.92): 2) 10.13 mmol/mol creatinine
- Sorbitol (urine) ([3]; MAN1B1-CDG patient, second sample, post-treatment with epalrestat, first sample 10.44): 2) 7.222^‡ mmol/mol creatinine
- Sorbitol (urine) ([3]; SLC39A8-CDG patient, marked post-treatment with epalrestat): 18.0^‡ mmol/mol creatinine
